Data published in paper PMC3948684, “Approaches to Improve the Oral Bioavailability and Effects of Novel Anticancer Drugs Berberine and Betulinic Acid” (PLoS ONE, 2014).
Converted amounts (≈) assume the structure as drawn.

Legend:
A549 cells = experiment: In vitro cytotoxicity, crystal violet staining; type: cell-based; conditions: Homo sapiens, BA, 72 h treatment
Protocol: (§1) NSCLC cells A549 and H1650 were plated in 96 well plates at 10,000 cells/well density. After 24 h, cells were treated with various concentrations of BBR and BA. DMSO (0.1%) treated cells were considered as control cells. After 72 h treatment, cells were fixed in 0.25% gultaraldehyde and stained with 0.05% crystal violet staining. Percent of cell viability or cell kill was calculated by considering DMSO treated control cells as 100% viable (zero % cell kill).

H1650 cells = experiment: In vitro cytotoxicity, crystal violet staining; type: cell-based; conditions: Homo sapiens, NCI-H1650; BA, 72 h treatment
Protocol: as §1

[1] = In vitro drug release of BA (USP type II paddle, HPLC); type: physicochemical; conditions: after 24 h; pH 5.8, 2.5% SLS, 37°C
Protocol: In vitro drug release study was conducted in PBS (pH 5.8) containing 1% volpo. Briefly, 50 mg of free drug or equivalent amount of SD form of BBR and BA were dispersed in 500 ml of release medium and the drug release profile was studied at pH 5.8. Release studies were performed according to the USP type II paddle method, at 37±0.5°C while stirring constantly at 50 rpm. Samples were withdrawn at different time points, centrifuged and drug content in the samples was analyzed by spectrometric method of analysis. The withdrawn samples were replaced by equal volumes of fresh medium maintained at the same temperature. Except replacing the 1% Volpo with 2.5% SLS, similar conditions were maintained for the in vitro drug release studies of BA in free drug and SD forms. The released BA concentrations were measured by established HPLC method.

[2] = Oral pharmacokinetic study; type: in vivo, Sprague Dawley rats
Protocol: Rats were fasted overnight before the start of the experiments and randomly divided into two experimental groups. […] Pharmacokinetic parameters were analyzed using non-compartmental techniques with WinNonlin® 5.0 software (Pharsight Corporation, Mountain View, CA, USA). SHAM analysis (i.e., Slope, Height, Area, and Moment) utilized plasma concentration-time data to estimate the area under the curve (AUC), apparent terminal elimination rate constant (λz), terminal elimination half-life (t1/2) and the area under the first moment of the plasma concentration–time curve (AUMC). The AUC was calculated for each rat using the piecewise log trapezoidal areas and extrapolated to infinity by dividing λz into the last measured plasma concentration (i.e. Clast/λz). From the values of AUC0_0-∞ and AUMC0-∞, the clearance (CL), mean residence time (MRT) and volume of distribution at tissue equilibrium (Vss) were calculated based on noncompartmental monoexponential assumptions as: CL = Dose/AUC, MRT≅AUMC/AUC and Vss = CL×MRT. The noncompartmental parameters were calculated for each rat before averaging dose groups. The pharmacokinetic parameters such as AUC, Cmax, t1/2, tmax, MRT, etc were compared between the free drug and SD formulations.

[3] = system: A549 orthotopic lung tumors; experiment: A549 orthotopic lung cancer model; type: in vivo, athymic Nu/nu mice; conditions: 100 mg/kg orally daily for 3 weeks
Protocol: (§2) A549 cells were grown in F12K Medium containing 10% FBS and standard antibiotic mix at 5% CO2 and 37°C. For orthotopic lung tumor model, mice were anesthetized with Isoflurane and a 5 mm skin incision was made to the left chest, 5 mm below the scapula. Hamilton syringes (1 ml) with 28-gauge hypodermic needles were used to inject the cell inoculums through the sixth intercostal space into the left lung. The needle was quickly advanced to a depth of 3 mm and quickly removed after the injection of the A549 cells (2 million/mouse) suspended in 100 µL PBS (pH 7.4) into the lung parenchyma. For metastatic lung tumor models H1650 cells (2 million in 100 µL PBS) were intravenously administered to mice via tail vein. […] Only cell suspensions of >95% viability as determined by tryphan blue exclusion were used. Wounds from the incisions were closed with surgical skin clips. […] Drug treatment was started 2 weeks after the tumor cell implantation. BBR free drug or SD formulation was given orally at the dose of 100 mg/kg daily for 3 weeks. […] Body weights were monitored throughout the study. Animal survival rates were recorded during the study. The lung weights and tumor volumes were used for assessment of therapeutic activity of the treatments. After sacrificing the animals lung weights and tumor nodules were recorded in metastatic tumor models.

[4] = system: H1650 metastatic lung tumors; experiment: H1650 metastatic lung cancer model; type: in vivo, athymic Nu/nu mice; conditions: 100 mg/kg orally daily for 3 weeks
Protocol: as §2

[5] = system: TUNEL positive apoptotic cells; experiment: TUNEL assay on orthotopic lung tumor sections; type: in vivo, athymic Nu/nu mice
Protocol: Terminal deoxynucleotidyl transferase-mediated dUTP nick end labeling (TUNEL) assay was used to study the DNA fragmentation or apoptosis detection. TUNEL assay was performed on 4–5 µm thick sections as per the kit manual. Formalin-fixed tumor tissues were embedded in paraffin and sectioned ([…]). DeadEndTM Colorimetric Apoptosis Detection System (Promega, Madison, WI) allows the recognition of apoptotic nuclei in paraffin-embedded tissue sections fixed on slides according to the manufacturer's protocol. Briefly, the equilibration buffer was added to slides and incubated for 10 minutes followed by 10-minute incubation in […] proteinase K solution. The sections were washed in PBS and incubated with TdT enzyme at 37°C for 1 h in a humidified chamber for incorporation of biotinylated nucleotides at the 3-OH ends of DNA. The slides were incubated in horseradish peroxidase-labeled streptavidin to bind the biotinylated nucleotides followed by detection with stable chromagen DAB. The images on the slides were visualized with an Olympus BX40 light microscope equipped with a computer-controlled digital camera (DP71, Olympus Center Valley, PA, USA). Three slides per group were stained and apoptotic cells were identified by dark brown […] staining.

Bax = experiment: Real time PCR of tumors; type: in vivo, athymic Nu/nu mice; conditions: normalised to β-actin
Protocol: (§3) Total RNA was extracted from tumors using RNeasy Kit and quantified by UV method using Nanodrop system. RNA was converted to complementary DNA using RT^2 First Strand Kit and RT^2 SYBR Green ROX qPCR Mastermix as per manufacturer's instructions. p38, Phospho-JNK, Bax, Bcl-2, cleaved caspase 8, cleaved caspase 3, survivin and BAD, mRNA expressions amplification was performed on an ABI 7300 RT-PCR (Applied Biosystems, Carlsbad, CA, USA) and data analysis done with a PCR Array Data Analysis Software (SA Biosciences, Valencia, CA, USA). The mRNA levels of p38, Phospho-JNK, Bax, Bcl-2, cleaved caspase 8, cleaved caspase 3, survivin and BAD and β-actin were calculated. The β-actin was a normalization control for gene expression.

Bcl-2 = experiment: Real time PCR of tumors; type: in vivo, athymic Nu/nu mice; conditions: normalised to β-actin
Protocol: as §3

Phospho-JNK = experiment: Real time PCR of tumors; type: in vivo, athymic Nu/nu mice; conditions: normalised to β-actin
Protocol: as §3

cleaved caspase-3 = experiment: Real time PCR of tumors; type: in vivo, athymic Nu/nu mice; conditions: normalised to β-actin
Protocol: as §3

cleaved caspase-8 = experiment: Real time PCR of tumors; type: in vivo, athymic Nu/nu mice; conditions: normalised to β-actin
Protocol: as §3

p38 = experiment: Real time PCR of tumors; type: in vivo, athymic Nu/nu mice; conditions: normalised to β-actin
Protocol: as §3

[6] = Sprague Dawley, rat, plasma, po, 100 mg/kg orally

Protocol for Caco-2 cell monolayers: Caco-2 cells (passage #29) were cultured at 37°C with culture medium replaced every 2 days in an atmosphere of 5% CO2 and 95% relative humidity. Cells were harvested upon reaching approximately 80-90% confluence with 0.25% trypsin–EDTA. Cells were grown on 1.12 cm^2 0.4 μm pore polycarbonate membrane inserts in 12 mm × 12 transwell permeable support plates (Corning, NY, USA). Caco-2 cells were seeded onto membranes at 50,000 cells/well. Individual wells received 1.5 mL of culture medium at the bottom and 0.5 mL of medium was added to the top of inserts which was changed on alternate days. Confluent monolayers were used for permeability studies at ~21 days post seeding. Transepithelial electrical resistance (TEER) of Caco-2 monolayers was measured prior to all experiments using the EVOM volt-ohm-meter (Millicell-ERS; Millipore, USA) to ensure monolayer integrity. The TEER (Ω·cm^2) values of the cell monolayers were determined by the resistance (Ω) × effective membrane area (cm^2). TEER values were measured across each cell monolayer prior to beginning the experimentation and at the last sample collection time point. Transport studies were initiated by removing culture medium from the apical (A) and basolateral (B) sides of the cell monolayer. […] The effective permeability (Peff) (cm/s) was determined using Eq. 1: […]

C=C(C)[C@@H]1CC[C@]2(C(=O)O)CC[C@]3(C)[C@H](CC[C@@H]4[C@@]5(C)CC[C@H](O)C(C)(C)[C@@H]5CC[C@]43C)[C@@H]12 [BA free drug, 3β, hydroxy-lup-20(29)-en-28-oic acid]
IC50 (A549 cells): 8.92 ± 1.68 µg/mL (≈ 19.5 µM)
IC50 (H1650 cells): 7.25 ± 1.54 µg/mL (≈ 15.9 µM)
drug release [1]: 11.3%
CL ([2]; 100 mg/kg orally): 6.78 ± 1.05 mL/kg/h
AUMC (0-∞) ([2]; BA, 100 mg/kg orally): 116.04±23.13 µg.h^2/ml
Vd ([2]; BA, 100 mg/kg orally): 122.43 ± 15.86 mL/kg
half-life ([2]; Sprague Dawley, rat, plasma, po, 100 mg/kg, read-out: t½ (converted)): 740 ± 221 min
MRT [2, 6]: 15.1 ± 3.86 h
Tmax [2, 6]: 2.36 ± 0.38 h
AUC(0-inf) ([2]; Sprague Dawley, rat, plasma, po, BA, 100 mg/kg orally): 7260 ± 1650 ng·h/mL
Cmax ([2]; Sprague Dawley, rat, po, BA, 100 mg/kg orally, plasma): 1160 ± 220 ng/mL
lung tumor weights [3]: 404.31 ± 29.50 mg
reduction in tumor volumes compared to untreated control [3]: 27.72%
reduction in tumor weights compared to untreated control tumors [3]: Approximately 31.11%
decrease of tumor nodules in the peripheral lobes [4]: 1.31 fold
tumor weights reduced to, compared to untreated control [4]: 75.94%
increase in TUNEL positive apoptotic cells compared to control tumors [5]: 8.14 fold
Bax mRNA expression increased compared to control (Bax): 1.08 fold
Bcl-2 mRNA expression down regulated compared to untreated control (Bcl-2): 1.36 fold
Phospho-JNK mRNA expression increased compared to control (Phospho-JNK): 1.69 fold
cleaved caspase-3 mRNA expression higher than control (cleaved caspase-3): 1.30 fold
cleaved caspase-8 mRNA expression higher than control (cleaved caspase-8): 1.25 fold
p38 mRNA expression increased compared to control (p38): 1.20 fold

Lucifer Yellow
mean permeability of paracellular control (Caco-2 cell monolayers): < 1.5e-07 cm/s
